Key:
[1] = test system: pro-inflammatory cytokines; CD14; conditions: CLP-mice, cited from earlier work
Description: Several studies report an up to 10-fold increase of heparanase expression after stimulation with pro-inflammatory cytokines. […] Accordingly, we detected organ-specific differences of heparanase levels that m ...

heparanase [2] = assay: Plasma heparanase level (ELISA), CLP septic mice; assay type: in vivo, murine; conditions: CLP-mice (NMRI), 24 h after CLP, peptide i.v. infusion 20 μg/ml, 100 μl/h vs NaCl 0.9%, n = 6 per group, Fig 1A, ***p < 0.0001
Procedure: Heparanase levels in human and murine plasma were measured using a commercial ELISA kit (No.: E03H0100, AMS Biotechnology, Oxon, United Kingdom) according to the manufacturer’s instructions. The ELISA´s detection range is 1.0 ng/ml– 5000 ng/ml.
(§1) The murine model of polymicrobial sepsis was divided into three steps as described before. Briefly, in a first step 12 NMRI mice underwent a catheterization procedure under general (isoflurane 1% to 2% in oxygen/air mix with a FiO2 of 0.3) and local (0.2 ml lidocaine 2%) anesthesia. A central vein catheter (PE-tube, self-made) was implanted in the jugular vein. After further local infiltration with lidocaine, the neck was closed by single suture. To prevent hypothermia all animals were kept on a heating pad throughout the surgical procedure. Mice were transferred back into the cage to rest for 48h. The i.v.-line was connected to the syringe pump at a rate of 100 μl/h (NaCl 0.9%).
(§2) In a second step, general and local anesthesia for cecal ligature and puncture (CLP) was performed as described above. The animal were transferred to the cage and reconnected with the i.v.-line. Depending on the group, peptide 19–2.5 infusion (20 μg/ml, 100 μl/h) or NaCl 0.9% infusion (100 μl/h) was started.
Finally, in a third step all animals were killed 24 h after CLP. […]

murine cells = conditions: cited from earlier work
Description: The synthetic antimicrobial peptide 19–2.5 belongs to the class of synthetic anti-lipopolysaccharide peptides (SALP = synthetic anti-LPS peptides). […] Thus, we investigated the impact of peptide 19–2.5 on levels of circulating HS-fragments in vivo. […] We postulate two ways by which peptide 19–2.5 reduces levels of circulating HS-fragments in mice: […]

heparanase [3] = assay: Plasma heparanase activity, human plasma, peptide added ex vivo; assay type: biochemical; conditions: 20 μg/ml peptide ex vivo, Fig 3B
Procedure: As described before, we used plasma from 18 adult individuals within 24 hours after presentation with septic shock, according to the ACCP/SCCM definition after written informed consent of patients or their legal representative. Individuals below 18 years were excluded. Furthermore, we used plasma from healthy human donors after written informed consent (n = 10). No personal or identifying information was collected from study participants. All samples are stored in the RWTH centralized Biomaterial Database (RWTH cBMB) of the University Hospital RWTH Aachen. The local ethics committee (University Hospital RWTH Aachen, EK 206_09) approved this study before inclusion of the first individual.
(§3) Heparanase activity in human and murine plasma was quantified using the commercial available Heparanase Assay Kit (No.: Ra001-BE-K, AMS Biotechnology, Oxon, United Kingdom) according to the manufacturer’s instructions.

heparanase [4] = assay: Plasma heparanase activity, CLP septic mice; assay type: in vivo, murine; conditions: CLP-mice (NMRI), 24 h after CLP; peptide i.v. infusion 20 μg/ml, 100 μl/h vs NaCl 0.9%; n = 6 per group; Fig 3A
Procedure: as §3, §1, §2
Finally, in a third step all animals were killed 24 h after CLP. Therefore, the animals were anesthetized as described above, brought to a prone position and the abdomen and thorax were opened. […]

heparanase [5] = assay: Isothermal titration calorimetry, binding to heparanase; conditions: ITC, 37°C
Procedure: Isothermal titration calorimetry (ITC) experiments were performed as previously described. Briefly, the binding of peptide 19–2.5 to heparanase or HS-fragments was recorded by measuring the enthalpy change of the reaction at 37°C. For this, a total of 100 μg/ml heparanase (R&D Systems Europe Ltd., Abingdon, United Kingdom) and 200 μg/ml HS-fragments (H7640 Sigma-Aldrich, St. Louis, MO, USA) were dispersed into the calorimetric cell, and 2 mM peptide 19–2.5 was titrated to this dispersion stepwise in 3 μl portions. After exploring experiments, the concentration of HS was 100 μg/ml titrated with 1.5 μl of peptide 19–2.5 (2 mM) 20 times at 37°C.
Fig 5 Isothermal titration calorimetry (ITC). For the ITC experiments, 2 mM peptide 19–2.5 was titrated to this dispersion stepwise in 3 μl portions into (A) 200 μg/ml heparan sulfate-fragments (HS) and (B) 100 μg/ml heparanase (Hep). In each titration, the resulting heat signals P were recorded (peak downwards are exothermic, peaks upwards endothermic reactions) against time (min) and presented in the top parts of Fig 5A and 5B. The integrated enthalpy changes ΔH versus [peptide]:[HS-fragments] (A) and [peptide]:[heparanase] (B) concentration ratios of the single titrations are illustrated in the bottom parts of Fig 5A and 5B.

[6] = cited from earlier work
Description: Since heparanase is the major mammalian enzyme liberating circulating HS-fragments, we investigated heparanase activity in mice subjected to CLP. […] Additionally, the inhibition of heparanase is lung-protective in murine sepsis. Recently, it was sh ...

[7] = 2 mM peptide in 3 μl portions into 100 μg/ml heparanase, Fig 5B
[8] = heparanase (Fig 5B) compared with HS-fragments (Fig 5A)

## peptide 19–2.5: synthetic antimicrobial peptide 19–2.5 belongs to the class of synthetic anti-lipopolysaccharide peptides (SALP = synthetic anti-LPS peptides)
[1]; differences between organs
  mRNA expression of CD14: decreases mRNA expression of CD14
[1]
  levels of pro-inflammatory cytokines: decreases levels of pro-inflammatory cytokines in CLP-mice
Heparanase [2]
  plasma heparanase level, untreated CLP-mice vs peptide-treated: significantly higher levels of plasma heparanase compared to mice treated with peptide 19–2.5
Murine cells; stimulated with HS-fragments in vitro
  inflammatory response in murine cells stimulated with HS-fragments: able to decrease the inflammatory response in murine cells stimulated with HS-fragments in vitro
Murine cells; stimulated with both PAMPs and DAMPs
  inflammatory response in murine cells stimulated with PAMPs and DAMPs: able to decrease the inflammatory response in murine cells stimulated with both PAMPs and DAMPs
Heparanase [3]; plasma of healthy humans (n = 10), n.s.
  plasma heparanase activity after ex vivo addition of peptide: did not alter heparanase activity
Heparanase [3]; plasma of septic shock patients (n = 18)
  plasma heparanase activity after ex vivo addition of peptide: significantly lowered heparanase activity
Heparanase [4]
  plasma heparanase activity vs untreated control: significant lower heparanase activity compared to untreated control animals
Heparanase [5]; [7]
  enthalpy change (ΔH) at the beginning of the titration: approximately −25 kJ/mol
  heat of reaction on titration to heparanase: exothermic reaction
  ΔH value at high peptide concentrations: around 12 kJ/mole
Heparanase [5]; 2 mM peptide into 100 μg/ml heparanase, Fig 5B
  binding constant for heparanase: does not allow calculating a binding constant
Heparanase [5]; 2 mM peptide into 100 μg/ml heparanase, no sigmoidal curve, Fig 5B
  saturation character of ΔH values: do not have a saturation character
Heparanase [5]; [8]
  peptide concentrations at which the processes take place vs HS-fragments: orders of magnitude higher than those for the interaction with HS-fragments
  ΔH values at the beginning of the titration vs HS-fragments: much lower than those for the HS-fragments titration
[6]
  effect on LPS aggregate structure and pro-inflammatory effects: changes the aggregate structure of LPS thereby neutralizing the pro-inflammatory effects of LPS

Source: PMC4658182, “The Synthetic Antimicrobial Peptide 19-2.5 Interacts with Heparanase and Heparan Sulfate in Murine and Human Sepsis” (PLoS ONE, 2015)
